{"source": "paper PMC7211195", "about": "(Investigational New Drugs, 2019)", "test": "Lapatinib pharmacokinetics and uptake in rat cerebrospinal fluid (CSF)", "type": "in vivo, rats", "details": "for MRT last: read-out: MRT0-t", "description": "This study was conducted on rats, which are a promising model to predict P-gp-based drug-drug interactions at the human BBB [15]. The animals were allowed to acclimate for one week before the beginning of the experiments. Adult male Wistar-strain rats (weight 470–525 g) were used in the study. The animals were maintained under standard breeding conditions with a 12/12 h light-dark cycle (lights on at 6.00 a.m., lights off at 6.00 p.m.) at constant room temperature (23 ± 2 °C), relative humidity (55 ± 10%) and ad libitum access to food and water. The experimental protocol for this study was reviewed and approved by the Local Ethics Committee. To obtain consistent data, the study was based on the required minimum number of animals and observation time. […] Three rats were used at each time point (n = 3). In total, the research was conducted on 66 animals (n = 33 in the experimental group and n = 33 in the control group).\nElacridar was freshly dissolved in a vehicle at an initial concentration of 20 mg/mL. […] A volume of 80 μL of blood was collected from each rat by cutting off a piece of its tail. The blood samples were collected into heparinized test tubes at the following time points: before treatment (time 0), 5 min, 30, min, and 1, 2, 3, 4, 6, 8, 12, and 24 h after administration of the drugs, and they were immediately centrifuged at 2880 g for 10 min at 4 °C. The anaesthetized rats (anaesthetized by intramuscular administration of 50 mg/kg ketamine and 10 mg/kg xylazine) were prepared for cisterna magna puncture. The hair over the puncture was removed and the skin was disinfected with alcohol. The animals were placed in a recumbent position with an elevated rear part of the body. The animals’ heads were slightly flexed and immobilized with the operator’s left hand. The space between the occiput rostrally and the atlas (C1) of the spinal column caudally was gently palpated with the left thumb. A 0.7 × 20 G needle with polyethylene tubing (Terumo Poland, Warsaw, Poland) was gently inserted at an approximate angle of 80–90° through the skin with the operator’s right hand into the midsagittal region. The moment that dura mater perforation was perceptible, a small amount of CSF was found in the needle tubing. To sample additional CSF, a 1 mL insulin syringe (Becton Dickinson, Warsaw, Poland) was used to collect 80–120 μL of CSF by very gentle aspiration. Only clear CSF was collected for further analysis. […] The animals’ brains were immediately dissected, washed in 0.9% NaCl and divided along the longitudinal axis. One of the brain hemispheres was again rinsed three times with 5 mL of 0.9% NaCl, weighed and homogenized with 0.9% NaCl (4 mL per 1 g of BT) in an Ultra-Turrax homogenizer (Witko, Łódź, Poland). The homogenate was then centrifuged at 4500 g for 10 min. All samples of the rat BP, CSF, and BT homogenate supernatant were stored at −80 °C until analysis.\nThe chromatographic analysis was conducted using a 1260 Infinity system (Agilent Technologies, Santa Clara, USA) equipped with a Kinetex® C18 column (50 × 4.6 mm, 2.6 μm, Phenomenex, Torrance, USA), which was maintained at 35 °C. The mobile phase consisted of 0.1% formic acid (v/v) in water with 5 mM ammonium formate (solvent A) and acetonitrile with 10% phase A (v/v, solvent B). The analyte and internal standard (IS, erlotinib) were eluted using a gradient run of 10 min as follows: 95% A at 0–2 min; 95%–5% A at 2–4 min; 5% A at 4–5 min; 5%–95% A at 5–6 min; 95% A at 6–10 min. The flow rate and injection volume were set at 0.7 mL/min and 10 μL, respectively. The needle was washed for 30 s in a mixture of acetonitrile, methanol, isopropanol, water, and formic acid (50:20:15:15:0.25, v/v/v/v/v).", "key": {"[1]": {"details": "cerebrospinal fluid, lapatinib 100 mg/kg oral + 5 mg/kg elacridar (IE+L)"}, "[2]": {"details": "cerebrospinal fluid, lapatinib 100 mg/kg oral alone (IIL)"}, "[3]": {"details": "male, Wistar, rat, cerebrospinal fluid (CSF), po, 100 mg/kg, lapatinib p.o. 100 mg/kg alone, read-out: Clapatinib in CSF, S (medium value)"}, "[4]": {"details": "male, Wistar, rat, cerebrospinal fluid (CSF), po, 100 mg/kg, lapatinib p.o. 100 mg/kg alone, read-out: Clapatinib in CSF, single rat"}, "[5]": {"details": "male, Wistar, rat, cerebrospinal fluid, oral, lapatinib 100 mg/kg + elacridar, read-out: Clapatinib in CSF, S"}, "[6]": {"details": "male, Wistar, rat, cerebrospinal fluid, oral, lapatinib 100 mg/kg + elacridar, read-out: Clapatinib in CSF, single rat"}, "[7]": {"details": "male, Wistar, rat, cerebrospinal fluid, po, 100 mg/kg, cerebrospinal fluid, lapatinib 100 mg/kg oral + 5 mg/kg elacridar (IE+L)"}, "[8]": {"details": "male, Wistar, rat, cerebrospinal fluid, po, 100 mg/kg, lapatinib 100 mg/kg oral alone (IIL)"}}, "note": "Read-outs that look alike come from different tables or passages of the source."}
{"smiles": "CS(=O)(=O)CCNCc1ccc(-c2ccc3ncnc(Nc4ccc(OCc5cccc(F)c5)c(Cl)c4)c3c2)o1", "note": "[lapatinib, N-{3-Chloro-4-[(3-fluorobenzyl)oxy]phenyl}-6-[5-({[2-(methylsulfonyl)ethyl]amino}methyl)-2-furyl]-4-quinazolinamine]", "values": [{"measurement": "AUC0-∞ increase by elacridar", "setting": "CSF", "result": 1.5, "unit": "fold"}, {"measurement": "Cmax increase in IE+L vs control", "setting": "CSF", "result": 2.4, "unit": "fold"}, {"measurement": "Kp decrease in IL+E group vs control", "setting": "CSF", "result": 42.9, "unit": "%"}, {"measurement": "t0.5 longer in the presence of elacridar", "setting": "CSF", "result": 2.6, "unit": "times"}, {"measurement": "AUC0-t elevated in IE+L", "setting": "CSF, IE+L vs IIL group", "result": 61.2, "unit": "%"}, {"measurement": "Cmax increase with elacridar", "setting": "CSF, IE+L vs IIL group", "result": 136.4, "unit": "%"}, {"measurement": "AUMC0-t", "setting": "[1]", "result": 1620.02, "unit": "ng × h^2/mL"}, {"measurement": "AUMC0-∞", "setting": "[1]", "result": 2725.51, "unit": "ng × h^2/mL"}, {"measurement": "AUMC0-t", "setting": "[2]", "result": 1257.21, "unit": "ng × h^2/mL"}, {"measurement": "AUMC0-∞", "setting": "[2]", "result": 1767.90, "unit": "ng × h^2/mL"}, {"measurement": "Kp", "setting": "male, Wistar, rat, CSF / plasma, oral, 100 mg/kg, IIL group, read-out: Cmax,CSF/Cmax,BP ratio", "result": 0.012}, {"measurement": "Kp", "setting": "male, Wistar, rat, CSF / plasma, oral, with elacridar 5 mg/kg intraperitoneally, 30 min before lapatinib, IE+L group, read-out: Cmax,CSF/Cmax,BP ratio", "result": 0.026}, {"measurement": "concentration at 0.25 h", "setting": "male, Wistar, rat, cerebrospinal fluid (CSF), po, 100 mg/kg, lapatinib p.o. 100 mg/kg alone, 0.25 h, read-out: Clapatinib in CSF, S (medium value)", "result": 3.73, "unit": "ng/mL"}, {"measurement": "concentration at 1 h", "setting": "[3]", "result": 38.5, "unit": "ng/mL"}, {"measurement": "concentration at 1 h", "setting": "[4]", "result": 38.5, "unit": "ng/mL"}, {"measurement": "concentration at 2 h", "setting": "[3]", "result": 10.8, "unit": "ng/mL"}, {"measurement": "concentration at 2 h", "setting": "[4]", "result": 10.8, "unit": "ng/mL"}, {"measurement": "concentration at 3 h", "setting": "[3]", "result": 12.2, "unit": "ng/mL"}, {"measurement": "concentration at 3 h", "setting": "[4]", "result": 9.49, "unit": "ng/mL"}, {"measurement": "concentration at 4 h", "setting": "[3]", "result": 13.8, "unit": "ng/mL"}, {"measurement": "concentration at 4 h", "setting": "[4]", "result": 13.8, "unit": "ng/mL"}, {"measurement": "concentration at 6 h", "setting": "[3]", "result": 26.9, "unit": "ng/mL"}, {"measurement": "concentration at 6 h", "setting": "[4]", "result": 26.9, "unit": "ng/mL"}, {"measurement": "concentration at 8 h", "setting": "[3]", "result": 24.4, "unit": "ng/mL"}, {"measurement": "concentration at 8 h", "setting": "[4]", "result": 24.4, "unit": "ng/mL"}, {"measurement": "concentration at 12 h", "setting": "[3]", "result": 7.23, "unit": "ng/mL"}, {"measurement": "concentration at 0.5 h", "setting": "male, Wistar, rat, cerebrospinal fluid, oral, lapatinib 100 mg/kg + elacridar, 0.5 h, read-out: Clapatinib in CSF, S", "result": 40.7, "unit": "ng/mL"}, {"measurement": "concentration at 1 h", "setting": "[5]", "result": 30, "unit": "ng/mL"}, {"measurement": "concentration at 2 h", "setting": "[5]", "result": 75.7, "unit": "ng/mL"}, {"measurement": "concentration at 3 h", "setting": "[5]", "result": 51.2, "unit": "ng/mL"}, {"measurement": "concentration at 3 h", "setting": "[6]", "result": 45.6, "unit": "ng/mL"}, {"measurement": "concentration at 4 h", "setting": "[5]", "result": 91, "unit": "ng/mL"}, {"measurement": "concentration at 4 h", "setting": "[6]", "result": 91, "unit": "ng/mL"}, {"measurement": "concentration at 6 h", "setting": "[5]", "result": 4.27, "unit": "ng/mL"}, {"measurement": "concentration at 6 h", "setting": "[6]", "result": 4.27, "unit": "ng/mL"}, {"measurement": "concentration at 8 h", "setting": "[5]", "result": 1.03, "unit": "ng/mL"}, {"measurement": "concentration at 8 h", "setting": "[6]", "result": 1.03, "unit": "ng/mL"}, {"measurement": "concentration at 12 h", "setting": "[5]", "result": 2.62, "unit": "ng/mL"}, {"measurement": "concentration at 12 h", "setting": "[6]", "result": 2.62, "unit": "ng/mL"}, {"measurement": "concentration at 24 h", "setting": "[5]", "result": 2.84, "unit": "ng/mL"}, {"measurement": "concentration at 24 h", "setting": "[6]", "result": 2.84, "unit": "ng/mL"}, {"measurement": "k el", "setting": "male, Wistar, rat, cerebrospinal fluid, po, 100 mg/kg", "result": "6.39e-05", "unit": "s⁻¹"}, {"measurement": "AUC(0-inf)", "setting": "[7]", "result": 387, "unit": "ng·h/mL"}, {"measurement": "AUC(0-t)", "setting": "[7]", "result": 356, "unit": "ng·h/mL"}, {"measurement": "Cmax", "setting": "[7]", "result": 91, "unit": "ng/mL"}, {"measurement": "Tmax", "setting": "[7]", "result": 4, "unit": "h"}, {"measurement": "MRT last", "setting": "[7]", "result": 4.55, "unit": "h"}, {"measurement": "MRT last", "setting": "male, Wistar, rat, cerebrospinal fluid, po, 100 mg/kg, cerebrospinal fluid, lapatinib 100 mg/kg oral alone (IIL)", "result": 5.7, "unit": "h"}, {"measurement": "AUC(0-inf)", "setting": "[8]", "result": 252, "unit": "ng·h/mL"}, {"measurement": "AUC(0-t)", "setting": "[8]", "result": 221, "unit": "ng·h/mL"}, {"measurement": "Cmax", "setting": "[8]", "result": 38.5, "unit": "ng/mL"}, {"measurement": "Tmax", "setting": "[8]", "result": 1, "unit": "h"}, {"measurement": "Kp", "setting": "male, Wistar, rat, cerebrospinal fluid, po, 100 mg/kg, read-out: Kp (tissue-to-plasma partition coefficient, AUC0-∞-tissue/AUC0-∞-plasma)", "result": 0.007}]}
